Test results: PubChem BioAssay AID2060894 (Molecular Pharmacology Branch, DTP, NCI, 2025)
One block for each compound: values may come before it.

Test system: K12877-001-R-J1-PDC complex spheroid viability
Assay: Anticancer human tumor K12877-001-R-J1-PDC patient-derived lung adenocarcinoma cell line growth inhibition [RAS]
Conditions: for IC50: curve of first compound; for viability, T/C: stronger effect = lower value
Procedure, shortened: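 Tumour cells grown as complex spheroids with HUVEC endothelial cells and mesenchymal stem cells, treated with RAS pathway inhibitor combinations. Each agent spans half-log steps from near clinical Cmax, or 10 microM where Cmax is unknown.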

[1] = second compound 0.00316 µM, first compound 0.0316 µM
[2] = second compound 0.00316 µM, first compound 0.1 µM
[3] = second compound 0.00316 µM, first compound 0.316 µM
[4] = second compound 0.00316 µM, first compound 1 µM
[5] = second compound 0.00316 µM, first compound 3.16 µM
[6] = second compound 0.00316 µM, first compound 10 µM
[7] = second compound 0.01 µM, first compound 0.0316 µM
[8] = second compound 0.01 µM, first compound 0.1 µM
[9] = second compound 0.01 µM, first compound 0.316 µM
[10] = second compound 0.01 µM, first compound 1 µM
[11] = second compound 0.01 µM, first compound 3.16 µM
[12] = second compound 0.01 µM, first compound 10 µM
[13] = second compound 0.0316 µM, first compound 0.0316 µM
[14] = second compound 0.0316 µM, first compound 0.1 µM
[15] = second compound 0.0316 µM, first compound 0.316 µM
[16] = second compound 0.0316 µM, first compound 1 µM
[17] = second compound 0.0316 µM, first compound 3.16 µM
[18] = second compound 0.0316 µM, first compound 10 µM
[19] = second compound 0.1 µM, first compound 0.0316 µM
[20] = second compound 0.1 µM, first compound 0.1 µM
[21] = second compound 0.1 µM, first compound 0.316 µM
[22] = second compound 0.1 µM, first compound 1 µM
[23] = second compound 0.1 µM, first compound 3.16 µM
[24] = second compound 0.1 µM, first compound 10 µM
[25] = second compound 0.316 µM, first compound 0.0316 µM
[26] = second compound 0.316 µM, first compound 0.1 µM
[27] = second compound 0.316 µM, first compound 0.316 µM
[28] = second compound 0.316 µM, first compound 1 µM
[29] = second compound 0.316 µM, first compound 3.16 µM
[30] = second compound 0.316 µM, first compound 10 µM
[31] = second compound 1 µM, first compound 0.0316 µM
[32] = second compound 1 µM, first compound 0.1 µM
[33] = second compound 1 µM, first compound 0.316 µM
[34] = second compound 1 µM, first compound 1 µM
[35] = second compound 1 µM, first compound 3.16 µM
[36] = second compound 1 µM, first compound 10 µM
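Also: spheroids exposed to agents for one week before readout.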

IC50 (second compound 0.00316 µM): > 10 µM
IC50 (second compound 0.01 µM): > 10 µM
IC50 (second compound 0.0316 µM): > 10 µM
IC50 (second compound 0.1 µM): > 10 µM
IC50 (second compound 0.316 µM): > 10 µM
IC50 (second compound 1 µM): > 10 µM
Compound: Cc1nc(N2CCC3(CC2)COC(C)C3N)c(CO)nc1Sc1ccnc(N)c1Cl (stereo unspecified) + C=CC(=O)N1CCN(c2nc(OCC3CCCN3C)nc3c(F)c(-c4nc(N)cc(C)c4C(F)(F)F)c(Cl)cc23)C(C)C1
viability, T/C [1]: 111%
viability, T/C [2]: 98.5%
viability, T/C [3]: 90.6%
viability, T/C [4]: 86.9%
viability, T/C [5]: 92.4%
viability, T/C [6]: 93%
viability, T/C [7]: 94.8%
viability, T/C [8]: 79.3%
viability, T/C [9]: 84.4%
viability, T/C [10]: 93.3%
viability, T/C [11]: 83.9%
viability, T/C [12]: 68.5%
viability, T/C [13]: 91.2%
viability, T/C [14]: 92.9%
viability, T/C [15]: 88.3%
viability, T/C [16]: 70%
viability, T/C [17]: 80.7%
viability, T/C [18]: 65.8%
viability, T/C [19]: 99.7%
viability, T/C [20]: 87.6%
viability, T/C [21]: 85.7%
viability, T/C [22]: 86.9%
viability, T/C [23]: 79.2%
viability, T/C [24]: 60.2%
viability, T/C [25]: 84.9%
viability, T/C [26]: 75.9%
viability, T/C [27]: 80.5%
viability, T/C [28]: 93.9%
viability, T/C [29]: 79.4%
viability, T/C [30]: 61.4%
viability, T/C [31]: 87.3%
viability, T/C [32]: 90.8%
viability, T/C [33]: 98.8%
viability, T/C [34]: 92.6%
viability, T/C [35]: 78.8%
viability, T/C [36]: 62.2%

IC50 (second compound 0.00316 µM): > 10 µM
IC50 (second compound 0.01 µM): 8.9 µM
IC50 (second compound 0.0316 µM): 6.88 µM
IC50 (second compound 0.1 µM): 5.24 µM
IC50 (second compound 0.316 µM): 5.89 µM
IC50 (second compound 1 µM): 9.97 µM
Compound: NC1c2ccccc2OC12CCN(c1cnc3c(N4CCCc5ncccc54)n[nH]c3n1)CC2 (stereo unspecified) + C=CC(=O)N1CCN(c2nc(OCC3CCCN3C)nc3c(F)c(-c4nc(N)cc(C)c4C(F)(F)F)c(Cl)cc23)C(C)C1
viability, T/C [1]: 82.2%
viability, T/C [2]: 89.4%
viability, T/C [3]: 83.9%
viability, T/C [4]: 84.5%
viability, T/C [5]: 63.4%
viability, T/C [6]: 52.7%
viability, T/C [7]: 82.7%
viability, T/C [8]: 92.4%
viability, T/C [9]: 84.6%
viability, T/C [10]: 78.1%
viability, T/C [11]: 65.5%
viability, T/C [12]: 48.2%
viability, T/C [13]: 89.8%
viability, T/C [14]: 79.6%
viability, T/C [15]: 75.4%
viability, T/C [16]: 69.3%
viability, T/C [17]: 57.5%
viability, T/C [18]: 45.9%
viability, T/C [19]: 97.3%
viability, T/C [20]: 79.3%
viability, T/C [21]: 67.4%
viability, T/C [22]: 64.5%
viability, T/C [23]: 54.7%
viability, T/C [24]: 44.4%
viability, T/C [25]: 81.5%
viability, T/C [26]: 73.5%
viability, T/C [27]: 70.3%
viability, T/C [28]: 63.4%
viability, T/C [29]: 48.9%
viability, T/C [30]: 48.9%
viability, T/C [31]: 81.9%
viability, T/C [32]: 95.9%
viability, T/C [33]: 66.7%
viability, T/C [34]: 76.7%
viability, T/C [35]: 55.5%
viability, T/C [36]: 50.7%

IC50 (second compound 0.00316 µM): 0.0179 µM
IC50 (second compound 0.01 µM): 0.0169 µM
IC50 (second compound 0.0316 µM): 0.0161 µM
IC50 (second compound 0.1 µM): 0.0166 µM
IC50 (second compound 0.316 µM): 0.0144 µM
IC50 (second compound 1 µM): 0.0131 µM
Compound: Nc1ccn(C2OC(CO)C(O)C2(F)F)c(=O)n1 (stereo unspecified) + C=CC(=O)N1CCN(c2nc(OCC3CCCN3C)nc3c(F)c(-c4nc(N)cc(C)c4C(F)(F)F)c(Cl)cc23)C(C)C1
viability, T/C (second compound 0.00316 µM, first compound 0.00316 µM): 95.9%
viability, T/C (second compound 0.00316 µM, first compound 0.01 µM): 94.4%
viability, T/C [1]: 6.55%
viability, T/C [2]: 4.24%
viability, T/C [3]: 4.05%
viability, T/C [4]: 3.99%
viability, T/C (second compound 0.01 µM, first compound 0.00316 µM): 93.7%
viability, T/C (second compound 0.01 µM, first compound 0.01 µM): 83%
viability, T/C [7]: 10.8%
viability, T/C [8]: 4.22%
viability, T/C [9]: 4.2%
viability, T/C [10]: 4.01%
viability, T/C (second compound 0.0316 µM, first compound 0.00316 µM): 83.5%
viability, T/C (second compound 0.0316 µM, first compound 0.01 µM): 81.2%
viability, T/C [13]: 6.08%
viability, T/C [14]: 3.45%
viability, T/C [15]: 5.01%
viability, T/C [16]: 4.23%
viability, T/C (second compound 0.1 µM, first compound 0.00316 µM): 87.8%
viability, T/C (second compound 0.1 µM, first compound 0.01 µM): 84.7%
viability, T/C [19]: 6.15%
viability, T/C [20]: 4.69%
viability, T/C [21]: 4.71%
viability, T/C [22]: 3.18%
viability, T/C (second compound 0.316 µM, first compound 0.00316 µM): 84.9%
viability, T/C (second compound 0.316 µM, first compound 0.01 µM): 70.4%
viability, T/C [25]: 6.26%
viability, T/C [26]: 4.95%
viability, T/C [27]: 4.16%
viability, T/C [28]: 4.03%
viability, T/C (second compound 1 µM, first compound 0.00316 µM): 83.5%
viability, T/C (second compound 1 µM, first compound 0.01 µM): 63.4%
viability, T/C [31]: 6.51%
viability, T/C [32]: 3.92%
viability, T/C [33]: 4.72%
viability, T/C [34]: 5.35%
